Assay results reported in patent US12427137B2, “Method for reducing methane production in animal stomach” (CHINA AGRICULTURAL UNIVERSITY, priority 2022, dated 2025).
Marks after values point to notes of the source that are not given here.

Tests used:
[1] = tested on: rumen fluids of cows (in vitro rumen fermentation system); assay: In vitro fermentation of rumen fluids of cows, methane content by gas chromatography; type: cell-based; details: for methane production of the in vitro rumen fermentation system: FIG. 1
Source text: Rumen fluids were collected from fistulated cows before morning feeding, filtered through 4 layers of gauze, and then brought back to the laboratory by placing in a thermos flask. The experiment comprised a control group (CON) and melatonin groups (MT: 10^−3 mol/L, 10^−5 mol/L, 10^−7 mol/L). The cattle farm Total Mixed Rations (TMR) was used as the fermentation substrate, and artificial saliva was used as the matrix. Oxygen in the fermentation flasks was replaced with nitrogen. Then, the rumen fluids were incubated anaerobically at 39° C. in an incubator, which was connected to a gas bag to collect the fermentation gas. The methane content in the gas bag was detected by gas chromatography. In vitro experiment: melatonin was added during the in vitro simulation of rumen fermentation. The in vitro rumen fermentation system of 75 mL in each bottle comprises 0.5 g TMR powder, 50 mL of artificial saliva and 25 mL of filtered rumen fluid. The 10^−3 mol/L, 10^−5 mol/L and 10^−7 mol/L melatonin groups (melatonin dissolved in a small amount of DMSO and diluted to these concentrations with saline) and a control group (only solvent, i.e., a small amount of DMSO+saline) were set up separately. For each group, the samples were collected at the fermentation times 2 h, 4 h, 8 h, 24 h and 48 h. Three replicates were set for each sample. After fermenting anaerobically at 39° C., the gas bags and fermentation liquid were collected. Gas chromatography was used to detect the methane content in the gas of the gas bags. The obtained data were analyzed by one-way analysis of variance (One Way ANOVA) by means of SPSS® (Statistical Product and Service Solutions) statistical software. p<0.05 indicated significant difference and p<0.01 indicated extremely significant difference. The DunCan test was used for multiple comparisons. The results were expressed as means±SEM. Addition form I: adding melatonin powder (MT p) directly to the fermentation system to a final concentration of 2×10−3 mol/L. Addition form II: adding concentrated melatonin solution (MT s) of 10^−3 mol/L at 0 h and 24 h respectively.

[2] = Melatonin concentration in rumen fluids of cows fed with melatonin; type: in vivo; details: cows fed 15 mg/kg/day, days 7 to 21, FIG. 2
Protocol: (§1) In vivo experiment: twenty lactating cows with similar ages and body conditions were selected and randomly divided into two groups, a control group (fed with digestible paper only) and a melatonin-fed group (fed with melatonin wrapped in digestible paper, 15 mg/kg/day). Each group had 10 cows. The cows were fed every morning after milking. The treatment lasted for 21 days. The rumen fluids were collected with rumen collection tubes before the morning feeding on days 0, 7, 14 and 21, respectively. The concentrations of melatonin in the rumen fluids were measured by liquid chromatography tandem mass spectrometry (LC-MS/MS). The breathing gas of the cows was collected by a breathing gas collection system to detect the methane content therein. Meanwhile, the information (e.g., the health condition and milk quality) of the cows was also recorded to monitor the influence of the feeding experiment on the dairy production.
Twenty lactating cows with similar ages and body conditions were selected and randomly divided into two groups, a control group (CON, fed with digestible paper only) and a melatonin-fed group (MT, fed with melatonin wrapped in digestible paper). Each group had 10 cows. […] And the melatonin contents in the rumen fluids were determined by […]. […]

rumen microbial flora = assay: Microorganism compositions of the in vitro rumen fermentation system (Alpha diversity, differential species analysis); type: cell-based, cows
Protocol: Alpha diversity can reflect the abundance and diversity of microbial flora. […] In order to clarify the species classification information of the microbial flora, the cluster analysis was performed to generate OTUs. FIGS. 5E-5F show the cluster diagram of the annotations at order level. […] There were significant differences in the relative abundance of Clostridiales, Bacteroides, Monadales, Desulfovibrionales and the like. The abundance of the microbial flora (e.g. Prevotella spp. and Succiniclasticum spp.) producing propionate and butyrate decreased, while the abundance of the microbial flora (e.g., Bifidobacterium) producing acetate increased. […] Each circle represents a species at the specific taxonomic level, and the size of the circle is positively correlated with the relative abundance of the species. The species with no significant differences are uniformly colored yellow, and the biomarkers for the species with differences are indicated with the color of the corresponding group.

[3] = tested on: archaea / methanogenic genera of the rumen microbial flora; assay: Metagenome sequencing of in vitro fermentation rumen fluids (archaea); type: cell-based, cows; details: melatonin treatment vs control, FIG. 7B
Protocol: Metagenome sequencing was performed in order to further study the changes in the rumen microbial flora. In addition to the analysis of the gene table, the metagenome sequencing can also analyze the microbial compositions of the samples. Thus, it can obtain more information on the species, including phages, viruses, fungi, archaea and the like, other than bacteria. […] Due to the discovery of the methane-reducing effect of melatonin, we focused on the changes of archaea. 72 species archaea species, which had different abundance between the control and melatonin groups, were screened. […] Thus, melatonin can reduce the methane production by reducing the abundance of most methanogenic microbial flora.

[4] = tested on: rumen fluids (in vitro rumen fluid fermentation); assay: Volatile fatty acids (VFAs) from the in vitro rumen fluid fermentation, gas chromatography; type: cell-based, cows; details: 10^−3 mol/L melatonin, 48 h
Protocol: Rumen microorganisms can degrade plant fibers and produce VFAs, which in turn provide energy substances to the hosts. Thus, we analyzed the production of VFAs from the in vitro fermentation system. Based on the above experiments, we determined to in vitro treat the rumen fluids with 10^−3 mol/L of melatonin solution for 48 h. The levels of six VFAs (i.e., acetate (A), propionate (P), butyrate (B), isobutyrate, valerate and isovalerate), were detected in the in vitro rumen fluid fermentation solution by gas chromatography. […] In the rumens of ruminant animals, CO2 and H2 are mainly produced during the conversion of pyruvate into acetate and butyrate in glycolysis, and glucose can be generated from propionate. The A/P ratios of the two groups were compared, 3.00 for the control group and 3.372 for the melatonin group.

lactating cows = assay: Methane content in respiratory gases of cows fed with melatonin; type: in vivo; details: fed 15 mg/kg/day
Protocol: as §1, with “production. Lactating cows were fed with melatonin powder of 15 mg/kg/day for 21 days. The respiratory gases were collected from each group at days 0, 7, 14 and 21 by using a respiratory gas collection system. The methane contents in the gases were detected by gas chromatography. […] In addition, this effect can be maintained for a longer period of time.” for “production.”

COc1ccc2[nH]cc(CCNC(C)=O)c2c1 [melatonin]
methane production of the in vitro fermentation ([1]; 10^−3 mol/L, 48 h, vs control): significantly reduced | methane production of the rumen fermentation liquid ([1]; 10^−3 to 10^−7 mol/L, 4 h to 8 h): reduced | reduction of methane production as compared with the control group ([1]; 4 h, all concentrations of melatonin groups (10^−3 to 10^−7 mol/L)): about 15% | methane content (%) ([1]; MT 10^−3 mol/L, fermentation time 2 h): 0.99 ± 0.05% | methane content (%) ([1]; MT 10^−3 mol/L, fermentation time 4 h): 3.42 ± 0.13% | methane content (%) ([1]; MT 10^−3 mol/L, fermentation time 8 h): 4.43 ± 0.39% | methane content (%) ([1]; MT 10^−3 mol/L, fermentation time 24 h): 9.68 ± 0.07% | methane content (%) ([1]; MT 10^−3 mol/L, fermentation time 48 h): 10.79 ± 0.53^b % | methane content (%) ([1]; MT 10^−5 mol/L, fermentation time 2 h): 1.09 ± 0.06% | methane content (%) ([1]; MT 10^−5 mol/L, fermentation time 4 h): 3.47 ± 0.07% | methane content (%) ([1]; MT 10^−5 mol/L, fermentation time 8 h): 4.47 ± 0.39% | methane content (%) ([1]; MT 10^−5 mol/L, fermentation time 24 h): 10.4 ± 0.24% | methane content (%) ([1]; MT 10^−5 mol/L, fermentation time 48 h): 12.65 ± 0.45^a % | methane content (%) ([1]; MT 10^−7 mol/L, fermentation time 2 h): 1.03 ± 0.07% | methane content (%) ([1]; MT 10^−7 mol/L, fermentation time 4 h): 3.45 ± 0.05% | methane content (%) ([1]; MT 10^−7 mol/L, fermentation time 8 h): 5.16 ± 0.14% | methane content (%) ([1]; MT 10^−7 mol/L, fermentation time 24 h): 10.6 ± 0.44% | methane content (%) ([1]; MT 10^−7 mol/L, fermentation time 48 h): 11.25 ± 0.67^a % | methane production of the in vitro rumen fermentation system ([1]; addition form I: melatonin powder (MT p), final concentration 2×10−3 mol/L, 48 h): significantly reduced | methane production of the in vitro rumen fermentation system ([1]; addition form II: concentrated melatonin solution (MT s) of 10^−3 mol/L at 0 h and 24 h, 48 h): significantly reduced | melatonin concentrations in the rumen fluids [2]: significantly increased | abundance of the microbial flora producing acetate (e.g., Bifidobacterium) (rumen microbial flora; FIGS. 6A-6B): increased | abundance of the microbial flora producing propionate and butyrate (e.g. Prevotella spp. and Succiniclasticum spp.) (rumen microbial flora; FIGS. 6A-6B): decreased | diversity of rumen microbial flora (Alpha diversity) (rumen microbial flora; melatonin added to the fermentation system, FIGS. 5A-5D): increased | compositions of the microbial flora (relative abundance of orders Clostridiales, Bacteroides, Monadales, Desulfovibrionales) (rumen microbial flora; melatonin treatment, FIGS. 5E-5F): significant changes | abundance of most methanogenic genera (Halobacterium, Methanoplanus, Methanococcoides, Methanoculleus, Methanothrix spp.) [3]: reduced | level of acetic acid in rumen fluids ([4]; FIG. 4): significantly reduced | level of propionic acid in rumen fluids ([4]; FIG. 4): significantly reduced | A/P ratio (acetate/propionate) ([4]; control group 3.00): 3.372 | methane production from the respiration of the cows (lactating cows; day 14, FIG. 3): decreased significantly | methane production from the respiration of the cows (lactating cows; day 21, FIG. 3): decreased to a similar extent as at day 14 | methane production from the respiration of the cows (lactating cows; from day 7, FIG. 3): decreased
